Measured values reported in PMC10818746, “Inhibition of CYP1A1 Alleviates Colchicine-Induced Hepatotoxicity” (Toxins, 2024).

What was measured:
Assay type in all cases: in vitro ADME
Details in all cases: colchicine 25 µM, NADPH 1 mM, CYP 2 pmol/mL, PBS pH 7.4; mean ± SD (n = 2)
[1] = target: T1, CYP2D6 (Homo sapiens, UniProt P10635); assay: Colchicine metabolism by cDNA-expressed recombinant CYP2D6
T1 construct: purchased Research Institute for Liver Diseases Co., Ltd. (Shanghai, China)
Procedure: (§1) Pre-cooled acetonitrile was used to terminate the reaction, and then centrifugation (4 °C, 12,000 rpm, 20 min) was performed to obtain the sample.
(§2) All samples were analyzed as shown in [17] and are briefly described in Supporting Information. […]
(§3) Supplementary materials and methods
(§4) Reference numbers refer to the main text list
(§5) UHPLC‐Q exactive plus MS Analysis
(§6) All samples were analyzed on a liquid chromatography system including a Vanquish autosampler, Vanquish detector, Vanquish pump (Thremo Fisher Scientific, Santa Clara, CA). Samples were separated on an ACQUITY UPLC HSS T3 column (2.1×100 mm, […], Waters, USA). The injection volume: 5 μL, and the flow rate was 0.3 mL/min.
(§7) Phase A was H2O containing 0.01% formic acid, and phase B was acetonitrile containing 0.01% formic acid. The elution gradient was as follows: 0‐12 mi n, 2‐98% B; 12‐14 min, 2% A; 14‐16 min, 98% A. Other parameters are as follows: column temperature 45 ℃ , flow rate of collision gas and dry gas 9 L/min. Capillary voltage 3.5 kV, temperature 350 ℃ , atomizer pressure 35 psi. Vanquish UHPLC‐Q Exactive plus MS (Thermo Fisher, USA) was collected in both positive modes, operating in full scan mode with 60‐900 m/z. […]

[2] = target: T2, CYP4A11 (Homo sapiens, UniProt Q02928); assay: Colchicine metabolism by cDNA-expressed recombinant CYP4A11
T2 construct: purchased Research Institute for Liver Diseases Co., Ltd. (Shanghai, China)
T2 sequence (Q02928 5-519): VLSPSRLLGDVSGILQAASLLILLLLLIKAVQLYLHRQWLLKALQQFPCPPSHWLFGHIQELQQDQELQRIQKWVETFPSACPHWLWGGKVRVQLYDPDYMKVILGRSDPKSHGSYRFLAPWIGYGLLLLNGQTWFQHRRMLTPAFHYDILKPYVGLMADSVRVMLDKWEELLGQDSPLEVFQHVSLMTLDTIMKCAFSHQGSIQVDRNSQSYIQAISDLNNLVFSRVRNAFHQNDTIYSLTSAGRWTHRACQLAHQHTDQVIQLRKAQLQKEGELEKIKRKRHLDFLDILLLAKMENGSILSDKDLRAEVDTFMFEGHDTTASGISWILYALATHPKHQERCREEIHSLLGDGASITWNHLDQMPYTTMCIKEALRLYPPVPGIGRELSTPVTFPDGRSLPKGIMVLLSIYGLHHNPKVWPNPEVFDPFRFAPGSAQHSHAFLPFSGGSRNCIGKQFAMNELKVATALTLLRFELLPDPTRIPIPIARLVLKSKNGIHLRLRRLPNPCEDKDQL
Procedure: as §1, §2, §3, §4, §5, §6, §7

[3] = target: T3, CYP1B1 (Homo sapiens, UniProt Q16678); assay: Colchicine metabolism by cDNA-expressed recombinant CYP1B1
T3 construct: purchased Research Institute for Liver Diseases Co., Ltd. (Shanghai, China)
T3 sequence (Q16678 1-543): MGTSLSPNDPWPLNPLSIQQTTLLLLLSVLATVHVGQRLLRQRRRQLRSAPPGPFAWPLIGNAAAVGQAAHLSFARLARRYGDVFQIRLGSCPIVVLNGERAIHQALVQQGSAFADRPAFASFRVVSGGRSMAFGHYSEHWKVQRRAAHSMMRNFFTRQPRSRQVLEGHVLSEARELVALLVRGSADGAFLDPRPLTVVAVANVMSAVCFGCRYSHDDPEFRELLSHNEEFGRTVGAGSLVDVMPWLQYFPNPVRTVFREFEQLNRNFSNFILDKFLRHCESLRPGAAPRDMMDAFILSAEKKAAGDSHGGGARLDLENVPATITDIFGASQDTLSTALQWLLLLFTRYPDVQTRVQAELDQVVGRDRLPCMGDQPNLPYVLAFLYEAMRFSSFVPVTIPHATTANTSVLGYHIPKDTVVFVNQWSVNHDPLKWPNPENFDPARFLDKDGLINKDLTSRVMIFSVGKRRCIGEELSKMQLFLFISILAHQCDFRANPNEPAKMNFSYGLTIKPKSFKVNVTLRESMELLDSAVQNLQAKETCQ
Procedure: as §1, §2, §3, §4, §5, §6, §7

[4] = target: T4, CYP1A2 (Homo sapiens, UniProt P05177); assay: Colchicine metabolism by cDNA-expressed recombinant CYP1A2
T4 construct: purchased Research Institute for Liver Diseases Co., Ltd. (Shanghai, China)
T4 sequence (P05177 1-516): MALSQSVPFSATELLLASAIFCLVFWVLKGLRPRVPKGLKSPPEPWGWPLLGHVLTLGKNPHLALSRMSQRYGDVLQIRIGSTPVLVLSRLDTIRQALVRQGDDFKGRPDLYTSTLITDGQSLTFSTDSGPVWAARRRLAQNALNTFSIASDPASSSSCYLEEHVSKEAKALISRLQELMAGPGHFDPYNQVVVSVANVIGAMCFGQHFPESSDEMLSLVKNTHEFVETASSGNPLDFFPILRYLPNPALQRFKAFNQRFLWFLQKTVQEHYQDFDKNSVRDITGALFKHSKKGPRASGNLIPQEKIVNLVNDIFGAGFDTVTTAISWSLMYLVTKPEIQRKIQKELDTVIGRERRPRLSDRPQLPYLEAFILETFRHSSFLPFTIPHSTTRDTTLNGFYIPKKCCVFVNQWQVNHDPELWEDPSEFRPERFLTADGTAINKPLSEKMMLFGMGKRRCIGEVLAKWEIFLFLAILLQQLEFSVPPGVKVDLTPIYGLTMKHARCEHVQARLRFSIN
Procedure: as §1, §2, §3, §4, §5, §6, §7

T1 sequence (P10635 whole entry): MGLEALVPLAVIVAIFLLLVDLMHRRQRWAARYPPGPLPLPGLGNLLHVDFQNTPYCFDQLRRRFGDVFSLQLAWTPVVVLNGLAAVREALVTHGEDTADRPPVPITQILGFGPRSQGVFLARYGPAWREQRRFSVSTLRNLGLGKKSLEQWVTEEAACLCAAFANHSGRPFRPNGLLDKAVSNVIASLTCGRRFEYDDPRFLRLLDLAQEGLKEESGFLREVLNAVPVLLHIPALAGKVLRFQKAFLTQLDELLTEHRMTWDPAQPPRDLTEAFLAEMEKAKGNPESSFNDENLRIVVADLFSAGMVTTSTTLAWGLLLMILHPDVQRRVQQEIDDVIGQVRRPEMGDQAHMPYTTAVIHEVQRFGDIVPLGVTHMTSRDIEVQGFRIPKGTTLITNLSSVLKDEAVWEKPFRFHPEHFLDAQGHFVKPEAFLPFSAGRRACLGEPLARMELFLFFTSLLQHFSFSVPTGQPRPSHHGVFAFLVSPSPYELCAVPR

SMILES | peak area of the metabolite after incubation with CYP2D6 as a percentage of the total peak areas from all the CYPs [1] | peak area of the metabolite after incubation with CYP4A11 as a percentage of the total peak areas from all the CYPs [2] | peak area of the metabolite after incubation with CYP1B1 as a percentage of the total peak areas from all the CYPs [3] | peak area of the metabolite after incubation with CYP1A2 as a percentage of the total peak areas from all the CYPs [4]
COc1cc2c(c(OC)c1O)-c1ccc(OC)c(=O)cc1[C@@H](NC(C)=O)CC2 [M1] | 7.91 ± 0.60% | 6.48 ± 0.33% | 4.56 ± 1.73% | 6.36 ± 0.19%
COc1cc2c(c(O)c1OC)-c1ccc(OC)c(=O)cc1[C@@H](NC(C)=O)CC2 [M2] | 3.23 ± 0.56% | 3.57 ± 0.39% | 2.53 ± 0.65% | 0.00 ± 0.00%
COc1cc2c(c(OC)c1OC)-c1ccc(O)c(=O)cc1[C@@H](NC(C)=O)CC2 [M4] | 11.27 ± 3.15% | 6.78 ± 0.33% | 7.00 ± 0.10% | 6.72 ± 0.44%
COc1c(O)cc2c(c1OC)-c1ccc(OC)c(=O)cc1[C@@H](NC(C)=O)C=C2 [M5] | 7.65 ± 11.17% | 8.01 ± 0.00% | 7.27 ± 2.20% | 8.33 ± 0.00%
COc1cc2c(c(OC)c1OC)-c1ccc(OC)c(=O)cc1C=CC2 [M6] | 7.59 ± 0.36% | 6.01 ± 0.22% | 7.14 ± 0.77% | 8.69 ± 0.17%
COc1c(O)cc2c(c1O)-c1ccc(OC)c(=O)cc1[C@@H](NC(C)=O)CC2 [M8] | – | 7.65 ± 1.95% | 7.48 ± 2.17% | 8.67 ± 3.80%
